Assay results published in patent US20190083495A1, “Methods Of Preventing Or Reducing A Fibrotic Response Using CSF1R Inhibitors” (Massachusetts Institute of Technology, priority 2016, published 2019).
Entries after “also recorded” stand apart in the source; their conditions may differ.

What was measured:
VEGF = VEGF Luminex protein quantification of protein lysates; format: in vivo, C57BL/6 mice; conditions: lysates of alginate spheres and tissue retrieved at 14 days
Description: (§1) For targeted macrophage depletions, clodrosome (200 μL/mouse) (Encapsula Nano Sciences, Nashville, Tenn.) were injected intraperitoneally starting at −3 days (prior to implantation, day 0), and for every 7 days thereafter (so days −3, 4, and 11). To achieve neutrophil depletion, affinity purified anti-Ly6g (Clone 1A8) antibody (250 ug/mouse) (BioLegend, San Diego, Calif.) was administered also starting at day −3, and every 3 days thereafter (except the day of implantation). For the combination therapy, in order to avoid drug-antibody interactions, each agent was administered 4 hours apart from one another. […]
Cytokine array analysis was performed using the Luminex Bio-Rad Bio-Plex Pro mouse cytokine panel based on Luminex beads (multiplexing both the 23 and 8-cytokine arrays) (Bio-Rad, Hercules, Calif.), according to manufacturer's instructions. 1:4 diluted mouse sera samples were analyzed for the time course, and protein lysates taken from fibrosed tissue and alginate microspheres, loaded at a concentration of 500 μg/mL (200 uL per sample), were run to compare cytokine responses across mock (saline) treated versus wildtype, knockout or serially perturbed/depleted C57BL/6 mice implanted with 500 μm SLG20 alginate spheres. […] The plate was then read on a BioPlex-200 plate reader, with absolute concentrations obtained through fitting a standard curve. […]

C57BL/6 mice [1] = experiment: Peritoneal lavage IP immune cell counts and FACS macrophage phenotype; format: in vivo
Description: Single-cell suspensions of freshly excised tissues were prepared using a gentleMACS Dissociator (Miltenyi Biotec, Auburn, Calif.) according to the manufacturer's protocol. Single-cell suspensions were prepared in a passive PEB dissociation buffer (1×PBS, pH 7.2, 0.5% BSA, and 2 mM EDTA) and suspensions were passed through 70 μm filters (Cat. #22363548, Fisher Scientific, Pittsburgh, Pa.). […] All tissue and material sample-derived, single-cell populations were then subjected to red blood cell lysis with 5 ml of 1×RBC lysis buffer (Cat. #00-4333, eBioscience, San Diego, Calif., USA) for 5 min at 4° C. The reaction was terminated by the addition of 20 ml of sterile 1×PBS. The cells remaining were centrifuged at 300-400g at 4° C. and resuspended in a minimal volume (˜50 μl) of eBioscience Staining Buffer (cat. #00-4222) for antibody incubation. […] For alpha smooth muscle actin (fibrosis) analysis, additional cell aliquots were also fixed in 1% paraformaldehyde and permeabilized with 0.1% triton X-100 before being stained with Cy3-conjugated anti-mouse αSM actin antibody (1:100) (Sigma Aldrich, St. Louis, Mo.). […]

[2] = system: reactive oxygen specie (ROS); experiment: ROS activity assessment of protein lysates from retrieved alginate spheres; format: in vivo, C57BL/6 mice; conditions: lysates from alginate spheres 14 days after IP implantation, two ROS substrates, vs untreated and vehicle
C57BL/6 mice [3] = experiment: Fibrosis of implanted material spheres retrieved after 14-day intraperitoneal implantation (phase contrast / brightfield imaging); format: in vivo
Excerpt: All protocols were approved by the MIT Committee on Animal Care, and all surgical procedures and post-operative care were supervised by MIT Division of Comparative Medicine veterinary staff. All mice, wild type male immune-competent (non-diabetic), STZ-induced diabetic, as well as knockout C57BL/6 mice, were ordered pathogen-free from Jackson Laboratory (Bar Harbor, Me.) or Taconic (Hudson, N.Y.). The status of all mice was subsequently verified by testing sentinel animals, shown to be negative for at least 12 known mouse pathogens. Implanted mice were anesthetized with 3% isoflurane in oxygen and had their abdomens shaved and sterilized using betadine and isopropanol. C57BL/6-Nude (T KO, B6NU), C57BL/6-Rag2^null (T & B KO, RAGN12), C57BL/6-Rag2^null/Il2rγ^null (Rag2/γ, 4111) were ordered from Taconic (Hudson, N.Y.), and C57BL/6-IghM^null (BKO, 002288), (C57BL/6) B6.12956-Ccr6tm1(EGFP)Irw/J. (Ccr6, 013061), and C57BL/6-C3 KO (C3 KO, 003641) mice were ordered from Jackson Laboratory, Bar Harbor, Me.). Preoperatively, all mice received 0.05 mg/kg buprenorphine and 0.2 mL of 0.9% saline subcutaneously for pre-surgery analgesia and dehydration prevention. A midline (abdomen) incision (0.5 mm) was made and the peritoneal lining was exposed using blunt dissection. The peritoneal wall was then grasped with forceps and a 0.5-1 mm incision was made along the linea alba. A desired volume of spheres (all materials) were then loaded into a sterile pipette and implanted into the peritoneal cavity. The incision was then closed using 5-0 taper-tipped polydioxanone (PDS II) absorbable sutures, and the skin was closed using a wound clip and VetBond tissue glue. For subcutaneous implantation, ˜200-300 μL of 500 μm SLG20 spheres were injected s.c. following anesthesia with isofluorane. […]

[4] = system: Peritoneal exudate macrophages; experiment: Phagocytosis assay with fluorospheres; format: cell-based, C57BL/6 mice; conditions: macrophages from treated mice, 90 minutes with fluorospheres, vs vehicle
Excerpt: (§2) For in vivo wound healing: C57BL/6 mice were anesthetized (same as above) and shaved, and skin incisions 1.5 cm in length were made along the midline. Each incision was then wound clipped shut for both vehicle and daily GW2580-treated C57BL/6 mice. Wound clips were removed and then replaced each imaging day up until day 7 (required to maintain them up until at least this time), after which clips were left off completely. Photos were acquired on days 0, 1, 4, 7, 10, and 14 post-incision. After 14 days, mice were sacrificed, and skin samples were prepared for histological assessment (H&E and Masson's Trichrome) of both vehicle and GW2580 treatment groups. Cross-sections through the incision line were generated to assess the level of in vivo healing following a 14-day treatment regimen. For IP innate immune cell counts, FACS, and phagocytosis assays: cells were isolated by peritoneal lavage with 8 mL DPBS, diluted into RPMI, and then subsequently counted, and aliquoted either for staining and FACS analysis (as described above), or for phagocytosis assays. […] Following appropriate incubation times, samples were read in a black-wall 96-well plate with a Tecan fluorescent-capable Infinite M1000 plate reader.

C57BL/6 mice [5] = experiment: In vivo wound healing of skin incisions
Excerpt: as §2, with “assays. Peritoneal exudate macrophages isolated by IP lavage from (n=5) mice in each treatment group were immediately plated (400,000 cells/well in a 24-well plate) and incubated with fluorospheres for 90 minutes to determine phagocytic activity. 1 μm orange fluorospheres (540/560) (Cat# F13082, Invitrogen, Carlsbad, Calif.) were added to each well in a volume of 500 μL from an initial dilution of 20 μL into 10 mL. After addition, plates were spun down at 1,000 rpm for 1 min, and then placed in an incubator for 90 minutes to allow IP macrophages time to phagocytose the 1 μm diameter fluorospheres. Following the 90-minute incubation, all wells were fixed with 4% paraformaldehyde and stored at 4 C prior to imaging using a fluorescent and brightfield-capable EVOS microscope (Advanced Microscopy Group).” for “assays.”

C57BL/6 mice [6] = experiment: NanoString expression analysis of mouse cytokines and cytokine receptors; format: in vivo
Description: as §1, with “another. To neutralize secreted CXCL13, anti-CXCL13 antibody (mAB470, R&D Systems) was injected i.p. in sterile 1×PBS at a dose of 100 μg/mouse, once every 3 days, starting 3 days prior to implantation as well.” for “another.”
RNAs for mock-implanted (saline) treated controls, or for 500 μm alginate sphere-bearing C57BL/6 mouse strains (n=4/group), including wild type, knockouts, and serially immune depleted wild type mice, were isolated from tissue samples taken at various time points after implantation, as described. […] In general, respective RNAs were quantified, normalized to the appropriate loading concentration (100 ng/μl), and then 500 ng of each sample was processed according to NanoString manufacturer protocols for expression analysis via our customized multiplexed total (known) mouse cytokine and cytokine receptor expression panel, used for both immune strain comparisons with alginate, and material class comparisons just the wild type C57BL/6 strain. […] RNA levels (absolute copy numbers) were obtained following nCounter (NanoString Technologies Inc., Seattle, Wash.) quantification, and group samples were analyzed using nSolver analysis software (NanoString Technologies Inc., Seattle, Wash.).

C57BL/6 mice [7] = experiment: FACS analysis of immune cells dissociated from retrieved spheres, tissue and spleen; format: in vivo
Description: For targeted macrophage depletions, clodrosome (200 μL/mouse) (Encapsula Nano Sciences, Nashville, Tenn.) were injected intraperitoneally starting at −3 days (prior to implantation, day 0), and for every 7 days thereafter (so days −3, 4, and 11). To achieve neutrophil depletion, affinity purified anti-Ly6g (Clone 1A8) antibody (250 ug/mouse) (BioLegend, San Diego, Calif.) was administered also starting at day −3, and every 3 days thereafter (except the day of implantation). For the combination therapy, in order to avoid drug-antibody interactions, each agent was administered 4 hours apart from one another. To neutralize secreted CXCL13, anti-CXCL13 antibody (mAB470, R&D Systems) was injected i.p. in sterile 1×PBS at a dose of 100 μg/mouse, once every 3 days, starting 3 days prior to implantation as well. For selective macrophage inhibition and polarization, the CSF1R-targeted inhibitor GW2580 (LC Labs, Woburn, Mass.), was dissolved in a 1:1 DMSO/PEG400 solution, and injected daily (starting 1 day prior to implantation) at a dose of 160 mg/kg BW subcutaneously (s.c.), to eliminate concerns of vehicle directly perturbing responding immune cells as well as a recovering implant site.
Single-cell suspensions of freshly excised tissues were prepared using a gentleMACS Dissociator (Miltenyi Biotec, Auburn, Calif.) according to the manufacturer's protocol. […]

CXCL10 = CXCL10 ELISA of protein lysates from retrieved alginate spheres and tissue; format: in vivo, C57BL/6 mice; conditions: lysates of alginate spheres and tissue retrieved at 14 days
[8] = RNA extracts 14 days post-implant, alginate

COc1ccc(COc2ccc(Cc3cnc(N)nc3N)cc2OC)cc1 [GW2580]
VEGF protein production (VEGF): spared to normal levels | IP macrophage phenotype (CD68 & CD11b staining) (C57BL/6 mice [1]; peritoneal lavage after 4 and 14 days of daily treatment, vs vehicle): shifted (decreased CD68 & CD11b intensities) | overall cell numbers in the peritoneal exudate (C57BL/6 mice [1]; vs untreated and vehicle-treated): unchanged | ROS activity [2]: no differences | fibrosis on 500 μm alginate spheres (C57BL/6 mice [3]; SLG20 alginate 500 μm spheres, 14 day implant, vs wild type/vehicle control): prevented the fibrotic response; also recorded: completely eliminated; also recorded: prevents fibrosis | fibrosis on 500 μm glass ceramic spheres (C57BL/6 mice [3]; glass spheres, 14 days, vs saline vehicle): prevented the fibrotic response; also recorded: prevents fibrosis | fibrosis on 500 μm polystyrene polymer spheres (C57BL/6 mice [3]; polystyrene spheres, 14 days, vs saline vehicle): prevented the fibrotic response; also recorded: prevents fibrosis | phagocytic activity [4]: no significant differences | incision site closure at day 7 (C57BL/6 mice [5]; 1.5 cm skin incision, daily treatment, day 7, skin stretched apart): shut and not pulling apart | scarring at day 14 (C57BL/6 mice [5]; 1.5 cm skin incision, daily treatment, day 14): very little scarring | wound resolution and healing potential by width and depth measurements (histology) (C57BL/6 mice [5]; day 14 post-incision, vs vehicle): no significant (ns) differences | expression of macrophage-associated (downstream) factors (FIG. 13F) (C57BL/6 mice [6]; [8]): inhibited | expression of macrophage-specific factors (FIG. 13D) (C57BL/6 mice [6]; [8]): inhibited | expression of non-immune-associated upstream inflammation-associated gene family (FIG. 18B) (C57BL/6 mice [6]; alginate-implanted mice, 14 days): decreased back to mock implanted (saline) control levels | macrophage, neutrophil and B cell presence on spheres (normalized to cell counts from 100 μl material) (C57BL/6 mice [7]; alginate spheres, 14 days post-i.p. implant): complete loss | inhibition of host immune attack to alginate, glass and polystyrene spheres (C57BL/6 mice [7]; compared with clodrosome-based macrophage depletion, 14 days i.p.): as effective as clodrosome-based macrophage depletion | CXCL10 protein level (CXCL10): increased reduction of CXCL10 back to wildtype levels
